Source: ChEMBL document CHEMBL2412991, “Catalytic asymmetric total synthesis of (S)-(-)-zearalenone, a novel lipoxygenase inhibitor” (Bioorg Med Chem, 2013)

Biological target: T1, Seed linoleate 13S-lipoxygenase-1 (Glycine max, UniProt P08170)
T1 sequence (P08170 whole entry): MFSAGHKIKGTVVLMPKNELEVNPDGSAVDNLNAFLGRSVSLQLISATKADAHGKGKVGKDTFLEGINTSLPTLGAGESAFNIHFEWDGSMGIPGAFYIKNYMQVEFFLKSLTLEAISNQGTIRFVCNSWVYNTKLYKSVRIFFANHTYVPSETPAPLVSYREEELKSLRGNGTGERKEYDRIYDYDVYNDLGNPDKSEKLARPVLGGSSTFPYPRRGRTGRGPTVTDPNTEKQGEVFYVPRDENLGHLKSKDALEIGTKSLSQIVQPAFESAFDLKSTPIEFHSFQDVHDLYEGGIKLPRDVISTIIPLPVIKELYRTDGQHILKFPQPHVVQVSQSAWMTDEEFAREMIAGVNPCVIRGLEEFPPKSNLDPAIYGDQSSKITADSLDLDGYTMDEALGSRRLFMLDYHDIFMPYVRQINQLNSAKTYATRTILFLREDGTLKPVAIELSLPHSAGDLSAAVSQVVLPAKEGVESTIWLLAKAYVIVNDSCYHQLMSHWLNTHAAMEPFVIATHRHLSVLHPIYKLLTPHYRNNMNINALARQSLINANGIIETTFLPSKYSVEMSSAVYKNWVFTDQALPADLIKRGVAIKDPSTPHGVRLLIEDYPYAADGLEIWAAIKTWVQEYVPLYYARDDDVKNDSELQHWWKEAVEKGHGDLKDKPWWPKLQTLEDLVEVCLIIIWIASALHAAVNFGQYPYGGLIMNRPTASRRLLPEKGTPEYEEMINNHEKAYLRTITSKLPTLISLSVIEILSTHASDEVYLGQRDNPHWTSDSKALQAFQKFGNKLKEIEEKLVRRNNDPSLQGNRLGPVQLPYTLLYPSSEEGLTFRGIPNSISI
Test: Inhibition of soybean lipoxygenase-1 assessed as inhibition of conversion of linoleic acid into hydroperoxy […] acid preincubated for 10 mins before substrate addition measured over 20 mins by spectrophotometric assay

Q: `C[C@H]1CCCC(=O)CCC/C=C/c2cc(O)cc(O)c2C(=O)O1` [ZEARALENONE] was tested. Which IC50 did it give?
A: Its IC50 is 51 µM.
